Assay results reported in US20250032493A1, “Methods for Treating Diseases Using MALT1 Inhibitors” (RARIFIED BIOSCIENCES, INC., priority 2021, published 2025).
Read-outs that look alike come from different tables or passages of the source.

How the values were obtained:
Tregs = experiment: Mouse accelerated Lupus model: Treg levels; format: in vivo, mice; details: 3 and 30 mg/kg daily
Experimental: In this example, REO-528 MALT1 inhibitor was administered to mice of an accelerated Lupus Nephritis model (IFN-alpha accelerated) to investigate the impact of the administration of the MALT1 inhibitor. Mice were divided into 6 groups: 1) Naïve, 2) vehicle (weeks 13-18), 3) REO538 (3 mg/kg) daily administration weeks 13-18, 4) REO-538 (30 mg/kg) daily administration weeks 13-18, 5) REO-538 (30 mg/kg) daily administration weeks 15-18, and 6) BID dexamethasone (Dex) at 1 mg/kg for weeks 15-18. Groups 2 through 6 were also administered AAV encoding mIFNα to accelerate the lupus nephritis disease.

splenic Tregs = experiment: Rat CIA model: splenic Treg levels; format: in vivo; details: for reduction in the Treg levels: CIA rats, in comparison to vehicle
Experimental: (§1) For isolation of synovial fluid prior to study termination, animals were anesthetized and the skin on the hind limbs were separated to ensure exposure of knee joint. A small incision was made near the top of the knee joint and the articular cavity was rinsed with 60 μl phosphate-buffered saline (PBS) for 2 time and ˜50-60 μl synovial fluid was collected. The synovial fluid samples were spun down, and the supernatant stored at −80° C. prior to cytokine analysis. At study termination, plasma was prepared from whole blood and stored at −80° C. prior to cytokine analysis and measurement of total and anti-collagen IgG. Single cell suspensions were prepared from harvested spleens following standard methods and Treg frequencies measured by flow cytometry-based immunophenotyping of freshly isolated cells.
Harvested spleens were homogenized in cold PBS and cellular debris removed by passing through a […] cell strainer. The cell suspension was centrifuged at 300×g for 5 min at 4° C. and the pellet was treated with 1×RBC lysis buffer per manufacturer's protocol (Thermofisher). The washed cell pellet was resuspended for a final concentration of 5-10×10^6 cells/ml and 100 μl of cell suspension was processed for immunophenotyping. […] Cells were washed with cold FACS wash buffer (BD) and fixed with 1×FoxP3/Transcription Factor Fixation Buffer (Thermofisher) for overnight at 4° C. […] Cells were washed 2-3× with the permeabilization and wash buffer as mentioned earlier, and finally resuspended in FACS wash buffer. Samples were acquired on a BD LSRFortessa flow cytometer and data analyzed using the FlowJo software (BD).

[1] = tested on: rat collagen induced arthritis (CIA) model; experiment: Rat collagen-induced arthritis model: clinical score
Source text: Adult female Lewis Rats (180-200 g body weight) were immunized subcutaneously with Type II bovine collagen/Incomplete Freund's Adjuvant emulsion on Day 0 and Day 7. On Day 14 rats were randomized based on clinical disease scores in different treatment groups. Rats received either once daily (q.d) dose of compounds via oral gavage or Vehicle (0.5% Carboxymethylcellulose-Na+0.5% Tween 80 in water, suspension) for 2 weeks. Naïve rats used as controls.

MALT1 = biological target: T1, MALT1 (Homo sapiens, UniProt Q9UDY8); experiment: Example IC50 and IC90 values of MALT1 inhibitors (blood concentration targets); format: cell-based
T1 sequence (Q9UDY8 1-824): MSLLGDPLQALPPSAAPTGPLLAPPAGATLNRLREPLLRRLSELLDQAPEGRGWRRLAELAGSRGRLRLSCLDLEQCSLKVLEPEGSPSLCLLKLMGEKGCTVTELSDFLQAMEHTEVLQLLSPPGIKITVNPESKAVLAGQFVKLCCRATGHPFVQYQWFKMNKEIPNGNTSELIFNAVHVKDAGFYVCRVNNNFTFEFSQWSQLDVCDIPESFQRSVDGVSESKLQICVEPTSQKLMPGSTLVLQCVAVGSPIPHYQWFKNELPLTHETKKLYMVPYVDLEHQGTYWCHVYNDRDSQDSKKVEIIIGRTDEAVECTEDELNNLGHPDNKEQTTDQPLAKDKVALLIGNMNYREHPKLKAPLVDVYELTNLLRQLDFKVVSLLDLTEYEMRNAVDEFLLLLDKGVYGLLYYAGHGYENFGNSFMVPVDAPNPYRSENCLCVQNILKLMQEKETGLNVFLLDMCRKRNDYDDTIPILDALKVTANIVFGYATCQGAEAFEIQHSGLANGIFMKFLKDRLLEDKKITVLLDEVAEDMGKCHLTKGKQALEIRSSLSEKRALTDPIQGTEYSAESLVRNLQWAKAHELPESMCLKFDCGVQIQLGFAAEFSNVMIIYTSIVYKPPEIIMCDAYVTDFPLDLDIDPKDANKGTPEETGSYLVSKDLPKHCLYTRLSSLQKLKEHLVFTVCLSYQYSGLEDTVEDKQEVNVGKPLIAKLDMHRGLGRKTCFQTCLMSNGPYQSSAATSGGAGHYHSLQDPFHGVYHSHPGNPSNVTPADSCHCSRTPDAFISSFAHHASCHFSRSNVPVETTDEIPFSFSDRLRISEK
Source text: In various embodiments, the plasma PK profile of the MALT1 inhibitor refers to a time over an IC50 blood concentration target following administration to the subject. As used herein, a “time over an IC50 blood concentration target” refers to a period of time following administration in which a concentration of the MALT1 inhibitor in the subject's blood is above the IC50 value.
In various embodiments, the plasma PK profile of the MALT1 inhibitor refers to a time over an IC90 blood concentration target following administration to the subject. As used herein, a “time over an IC90 blood concentration target” refers to a period of time following administration in which a concentration of the MALT1 inhibitor in the subject's blood is above the IC90 value.

[2] = tested on: rat collagen induced arthritis (CIA) model; experiment: Rat CIA model: plasma and synovial cytokines, anti-collagen and total IgG; format: in vivo
Experimental: as §1
All cytokine measurements were performed using commercially available kits and as per manufacturer's protocol. Supernatants from human whole blood and cellular assays were quantified using the human Proinflammatory Panel 1 (human) kit on a Sector Imager 6000 reader (Meso Scale Discovery, Rockville, MD). IL-17a was quantified using the V-Plex Human IL-17a kit on a Sector Imager 6000 reader (Meso Scale Discovery, Rockville, MD). Supernatants from rat whole blood assay were analyzed for IL-2 levels using the rat IL-2 Duoset ELISA kit (R&D). […]

[3] = tested on: CD4+CD45RO+ Memory T-cells; experiment: Memory CD4+ T-cell cytokine release assay; details: Memory T-cells (a-CD3/-CD28/-CD2)
Experimental: Memory CD4^+ T-cells were isolated from human donor PBMCs using an EasySep kit (Stemcell) and were rested overnight in complete RPMI media (Thermofisher) supplemented with 10% FBS (Atlanta Biologics), 10 mM HEPES, 2 mM GlutaMAX, 1 mM Na Pyruvate, and 1×MEM non-essential amino acids (Thermofisher).

[4] = tested on: human monocyte-derived macrophages; experiment: Monocyte-derived macrophages stimulated with IgG immune complex; details: Macrophages (aIgG + IgG, immune-complex)
Experimental: (§2) After differentiation, cells were harvested with Accutase solution (Stemcell Technologies) and incubated for 2 h at 37° C., 5% CO2 in 96-well plates.

CD4+ Total T-cells = experiment: Total CD4+ T-cell cytokine release assay; format: cell-based, human; details: CD4+ Total T-cells (a-CD3/-CD28)
Experimental: All cytokine measurements were performed using commercially available kits and as per manufacturer's protocol. Supernatants from human whole blood and cellular assays were quantified using the human Proinflammatory Panel 1 (human) kit on a Sector Imager 6000 reader (Meso Scale Discovery, Rockville, MD). IL-17a was quantified using the V-Plex Human IL-17a kit on a Sector Imager 6000 reader (Meso Scale Discovery, Rockville, MD). Supernatants from rat whole blood assay were analyzed for IL-2 levels using the rat IL-2 Duoset ELISA kit (R&D). Plasma and synovial samples harvested from the rat CIA study were quantified for proinflammatory cytokines using the rat V-PLEX Proinflammatory Panel 2 kit (MSD).

[5] = tested on: human monocyte-derived macrophages; experiment: Monocyte-derived macrophages stimulated with depleted zymosan
Experimental: as §2

Total B cells = experiment: B-cell proliferation assay (BCR/CD40L); details: readout Proliferation
Experimental: Freshly isolated total CD19^+ B-cells (Stemcell) from Human PBMCs were labeled with 2 μM Cell Trace Violet (ThermoFisher) and incubated for 5 min on a Nutator. […] Proliferation was assessed by flow cytometry.

Jurkat-T cells = experiment: Jurkat IL-2 assay; details: Jurkat-T cells (a-CD3/-CD28/-CD2); readout IL-2
Experimental: Cells were cultured in RPMI/10% FBS (Thermofisher) and maintained under a concentration of 3×10^6 cells/ml. MALT1i at different concentrations were stamped by ECHO onto 384-well plates (PerkinElmer, Waltham, MA) following which cells were plated in fresh media and incubated for 30 minutes before stimulation with soluble α-CD3/CD28/CD2 (ImmunoCult, Stemcell Technologies, Vancouver, Canada) for 24 h. Supernatants were collected as mentioned earlier and processed immediately for cytokine analysis or stored at −80° C. To assess viability of cells treated with compound, cells were lysed with CTG reagent (Promega, Madison, WI), and measured by luminometer.

In the case of `CN(C(=O)C1CCS(=O)(=O)CC1)[C@@H](c1ccc(Nc2cnc3cccnc3c2C2CC2)cc1)C(F)(F)F` [REO-538], the Treg levels (Tregs) is reported as “reduced Treg levels in a dose dependent manner”, the “reduction in the Treg levels” value (splenic Tregs; 1 mg/kg dose) is reported as 1% and the “reduction in the Treg levels” value (splenic Tregs; 10 mg/kg dose) is reported as 49%. For the same compound, the “log10AUC value at ~40% reduction in Treg levels” value (splenic Tregs; rat CIA model) was ~2.0 μg*hr/mL, the “qualitative Treg impact (FIG. 11)” value (splenic Tregs; rat CIA model) was “low Treg impact” and the “reduction in the clinical score” value ([1]; 0.3 mg/kg dose, in comparison to the vehicle treatment) was 26%. For the same compound, the “reduction in the clinical score” value ([1]; 1 mg/kg dose, in comparison to the vehicle treatment) was 59%, the “reduction in the clinical score” value ([1]; 3 mg/kg dose, in comparison to the vehicle treatment) was 65% and the “reduction in the clinical score” value ([1]; 10 mg/kg dose, in comparison to the vehicle treatment) was 80%. The “reduction in the clinical score” value ([1]; Example 6: daily 3 mg/kg for 14 days, vs vehicle) was 25%, the “reduction in the clinical score” value ([1]; Example 6: daily 10 mg/kg for 2 days followed by daily 3 mg/kg for 12 days, vs vehicle) was 43% and the “reduction in the clinical score” value ([1]; Example 6: daily 10 mg/kg for 14 days, vs vehicle) was 70%. The “log10AUC value at ~50% reduction in the clinical score” value ([1]; rat CIA model) was ~1.2 μg*hr/mL, the “qualitative efficacy (FIG. 11)” value ([1]; rat CIA model) was “high efficacy” and the IC90 (MALT1; example values, blood concentration target, read-out: IC90) was 10.4 µM. For the same compound, the IC90 (MALT1; higher dotted line of FIG. 13B, read-out: IC90 value (estimated)) was ~1 µg/mL, the IC50 (MALT1; lower dotted line of FIG. 13B, read-out: estimated IC50 value (converted)) was ~0.376 µM and the “IL-1beta and IL-6 in synovial fluid” value ([2]; 10 mg/kg and 10+3 mg/kg groups in comparison to the 3 mg/kg group) was “lower”. The “KC/GRO and TNFα in synovial fluid” value ([2]; each of the 3 mg/kg, 10 mg/kg and 10+3 mg/kg groups in comparison to vehicle) was “lower levels”.
With `CO[C@@H](C)c1c(NC(=O)Nc2ccnc(C(F)(F)F)c2)cnc2cc(Cl)nn12` [REO-981] the “Effect size (% Max. inhibition)” value ([3]; readout IFNg) was ~80%, the “Effect size (% Max. inhibition)” value ([3]; readout IL-2) was >90% and the “Effect size (% Max. inhibition)” value ([3]; readout IL-17) was >90%. The “Effect size (% Max. inhibition)” value ([3]; readout TNFa) was ~85%, the “log10Ctrough value at ~40% reduction in Treg levels” value (splenic Tregs; rat, in vivo) was ~3.3 ng/mL and the “Effect size (% Max. inhibition)” value ([4]; readout IL-6) was >75%. For the same compound, the “Effect size (% Max. inhibition)” value ([4]; readout TNFa) was ~74%, the “Effect size (% Max. inhibition)” value (CD4+ Total T-cells; readout IFNg) was >95% and the “Effect size (% Max. inhibition)” value (CD4+ Total T-cells; readout IL-2) was >95%. The “Effect size (% Max. inhibition)” value (CD4+ Total T-cells; readout TNFa) was ~85%, the “Effect size (% Max. inhibition)” value ([5]; readout IL-6) was >60% and the “Effect size (% Max. inhibition)” value ([5]; readout TNFa) was >75%. The “log10Ctrough value at ~50% reduction in the clinical score” value ([1]; rat, in vivo) was ~2.6 ng/mL, the “Effect size (% Max. inhibition)” value (Total B cells) was ~60% and the “Effect size (% Max. inhibition)” value (Jurkat-T cells) was >95%.
